Drawing on patent US20260262643A1, “HERBICIDAL BENZOXAZINES” (FMC CORPORATION, priority 2022, published 2026), this text covers pest or weed control, plant injury and Corn plant response rating (crop injury, 0 = no effect, 100 = complete kill) for two compounds.

In one assay the test system is ducksalad. Kind of assay: Test B flooded paddy test. The class given is in vivo, Heteranthera limosa. Particulars: Heteranthera limosa, 312 h, 250 g ai/ha, Flood, 13 days, 0 to 100 scale (0 no effect, 100 complete control); read-out: Plant response rating, Ducksalad. Put shortly: (§1)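 Visual scores from 0 (no effect) to 100 (complete kill) were assigned 13 days after treatment by comparison with controls. Seedlings had been treated at two leaves by adding compound to floodwater standing 3 cm deep, kept at that level in the greenhouse.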

For another assay, the system named is pigweed, palmer. Kind of assay: Test A preemergence. The class given is in vivo, Amaranthus palmeri. Conditions: Amaranthus palmeri, pre-emergence, 240 h, read-out: Plant response rating, Pigweed, Palmer; for pest or weed control at 125 g/ha: 125 g ai/ha; for pest or weed control at 500 g/ha: 500 g ai/ha. The gist of the method:
(§2)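 Greenhouse pot test, 10 days. Compound (non-phytotoxic solvent, surfactant) sprayed on soil at seeding or on seedlings at one- to two-leaf stage. Visual injury rated 0–100 against untreated plants.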

The next assay deals with barnyardgrass. Put plainly: Test B flooded paddy test. Particulars: Echinochloa crus-galli, 312 h, 250 g ai/ha, Flood, 13 days, 0 to 100 scale (0 no effect, 100 complete control); read-out: Plant response rating, Barnyardgrass. The assay is classed as in vivo, Echinochloa crus-galli. The gist of the method:
as §1

For the next assay, the system named is rice. Put plainly: Test B flooded paddy test. The assay is classed as in vivo, Oryza sativa. Particulars: Oryza sativa, 312 h; 250 g ai/ha, Flood, 13 days, 0 to 100 scale (0 no effect, 100 complete control); read-out: Plant response rating, Rice. The gist of the method:
as §1

Another assay relates to soybean. Put plainly: Test A postemergence. The class given is in vivo, Glycine max. Particulars: Glycine max, post-emergence, 240 h; for plant injury at 125 g/ha: 125 g ai/ha; for plant injury at 500 g/ha: 500 g ai/ha. The gist of the method:
as §2

The subject of another assay is ragweed. Kind of assay: Test A preemergence. The assay is classed as in vivo, Ambrosia artemisiifolia. Conditions: Ambrosia artemisiifolia, pre-emergence, 240 h, read-out: Plant response rating, Ragweed; for pest or weed control at 125 g/ha: 125 g ai/ha; for pest or weed control at 500 g/ha: 500 g ai/ha. The gist of the method:
as §2

For assay [1], the system named is kochia. Kind of assay: Test A postemergence. The assay is classed as in vivo, Bassia scoparia. Conditions: Bassia scoparia, post-emergence, 240 h; for pest or weed control at 125 g/ha: 125 g ai/ha; for pest or weed control at 500 g/ha: 500 g ai/ha. The gist of the method: as §2
In a further assay the test system is ryegrass, Italian. Put plainly: Test A preemergence. The assay is classed as in vivo, Lolium multiflorum. Conditions: Lolium multiflorum, pre-emergence, 240 h, read-out: Plant response rating, Ryegrass, Italian; for pest or weed control at 125 g/ha: 125 g ai/ha; for pest or weed control at 500 g/ha: 500 g ai/ha. The gist of the method:
as §2

In another assay the test system is oat, wild. Kind of assay: Test A preemergence. Conditions: Avena fatua, pre-emergence, 240 h, read-out: Plant response rating, Oat, Wild; for pest or weed control at 125 g/ha: 125 g ai/ha; for pest or weed control at 500 g/ha: 500 g ai/ha. The assay is classed as in vivo, Avena fatua. The gist of the method: as §2
The subject of a further assay is horseweed. Kind of assay: Test A postemergence. The assay is classed as in vivo, Erigeron canadensis. Conditions: Erigeron canadensis, post-emergence, 240 h, postemergence, 10 days, 0 to 100 scale (0 no effect, 100 complete control). The gist of the method: as §2
Assay [2] deals with corn. Kind of assay: Test A postemergence. The assay is classed as in vivo, Zea mays. Particulars: Zea mays, post-emergence, 240 h; for Corn plant response rating (crop injury, 0 = no effect, 100 = complete kill) at 500 g/ha: 500 g ai/ha. Put shortly: as §2
The subject of a further assay is wheat. Put plainly: Test A preemergence. The class given is in vivo, Triticum aestivum. Conditions: Triticum aestivum, pre-emergence, 240 h, read-out: Plant response rating, Wheat; for plant injury at 125 g/ha: 125 g ai/ha; for plant injury at 500 g/ha: 500 g ai/ha. The gist of the method:
as §2

Assay [3] concerns kochia. Put plainly: Test A preemergence. The class given is in vivo, Bassia scoparia. Conditions: Bassia scoparia, pre-emergence, 240 h, read-out: Plant response rating, Kochia; for pest or weed control at 125 g/ha: 125 g ai/ha; for pest or weed control at 500 g/ha: 500 g ai/ha. Put shortly:
as §2

Assay [4] has as its system corn. Put plainly: Test A preemergence. Particulars: Zea mays, pre-emergence, 240 h; for Corn plant response rating (crop injury, 0 = no effect, 100 = complete kill) at 125 g/ha: 125 g ai/ha; for Corn plant response rating (crop injury, 0 = no effect, 100 = complete kill) at 500 g/ha: 500 g ai/ha. The class given is in vivo, Zea mays. Put shortly:
as §2

Setting [5] is: visual injury after 10 days, 0 to 100 scale, 0 is no effect, 100 is complete control.
[6] abbreviates: postemergence, 10 days, visual injury, 0 to 100 scale (0 no effect, 100 complete control), read-out: Plant response rating, Soybean.
Where [7] appears, read: postemergence, 10 days, visual injury, 0 to 100 scale (0 no effect, 100 complete control), read-out: Plant response rating, Kochia.
Setting [8] is: 0 to 100 scale (0 no effect, 100 complete control), 10 days.

Where two headings read alike, the source gives them in different places.

With `C[C@H]1CN(C(=O)c2cccc(-c3cnn(C)n3)c2)c2cccc(Cl)c2O1` [Compound 127, [(2S)-8-Chloro-2,3-dihydro-2-methyl-4H-1,4-benzoxazin-4-yl][3-(2-methyl-2H-1,2,3-triazol-4-yl)phenyl]methanone], the pest or weed control at 250 g/ha in the assay on ducksalad and with barnyardgrass was 0% each time. Further, the pest or weed control at 125 g/ha in the assay on pigweed, palmer (setting [5]) was 40%; in the assay with ragweed (setting [5]) it was 0%; in the assay with kochia [1] (postemergence, 10 days, 0 to 100 scale (0 no effect, 100 complete control), read-out: Kochia plant response rating), 60%; with ryegrass, Italian (setting [5]) it was 20%; in the assay with oat, wild (setting [5]) it was 0%; in the assay with horseweed (125 g ai/ha, read-out: Horseweed plant response rating) it was 0%. In the assay with kochia [3] (setting [5]), the pest or weed control at 125 g/ha came out at 0%. Also, the pest or weed control at 500 g/ha turned out to be 90% with pigweed, palmer (setting [5]); 0% in the assay with ragweed (setting [5]); 90% with kochia [1] (setting [7]); 90% with ryegrass, Italian (setting [5]); 20% in the assay on oat, wild (setting [5]); 0% with horseweed (500 g ai/ha, visual injury, read-out: Plant response rating, Horseweed). The pest or weed control at 500 g/ha in the assay with kochia [3] (setting [5]) was 60%. Besides, the plant injury at 250 g/ha in the assay with rice stood at 0%. The plant injury at 125 g/ha with soybean (postemergence, 10 days, 0 to 100 scale (0 no effect, 100 complete control), read-out: Soybean plant response rating) amounted to 100%; in the assay on corn [2] (125 g ai/ha, postemergence, 10 days, 0 to 100 scale (0 no effect, 100 complete control), read-out: Corn plant response rating), 20%; in the assay with wheat (setting [5]), 0%. The plant injury at 500 g/ha with soybean (setting [6]) was determined as 100%; with wheat (setting [5]), 0%. Also, the Corn plant response rating (crop injury, 0 = no effect, 100 = complete kill) at 500 g/ha with corn [2] (postemergence, 10 days, visual injury, 0 to 100 scale (0 no effect, 100 complete control)) stood at 50%; with corn [4] (setting [5]) it was 0%. Moreover, the Corn plant response rating (crop injury, 0 = no effect, 100 = complete kill) at 125 g/ha in the assay with corn [4] (setting [5]) worked out at 0%.
With `Cc1cccc2c1O[C@@H](C)CN2C(=O)c1cccc(-n2cnc(Br)n2)c1` [Compound 61, [3-(3-Bromo-1H-1,2,4-triazol-1-yl)phenyl][(2S)-2,3-dihydro-2,8-dimethyl-4H-1,4-benzoxazin-4-yl]methanone], the pest or weed control at 250 g/ha came out at 15% in the assay on ducksalad and 0% in the assay with barnyardgrass. Moreover, the pest or weed control at 125 g/ha in the assay with pigweed, palmer (setting [5]) was 60%; in the assay on ragweed (setting [5]), 0%; in the assay with kochia [1] (setting [7]), 20%; in the assay with ryegrass, Italian (setting [5]), 90%; in the assay on oat, wild (setting [5]), 30%; in the assay with kochia [3] (setting [5]) it was 20%. Further, the pest or weed control at 500 g/ha with pigweed, palmer (setting [8]) was 90%; in the assay with ragweed (setting [8]) it was 40%; in the assay on kochia [1] (Postemergence, 0 to 100 scale, read-out: Plant response rating, Kochia), 70%; with ryegrass, Italian (setting [8]), 100%; with oat, wild (setting [8]), 30%; in the assay on kochia [3] (setting [8]) it was 60%. The plant injury at 250 g/ha with rice is 0%. Further, the results for the plant injury at 125 g/ha with soybean (setting [6]) and in the assay with wheat (setting [5]) were 100% and 0%, respectively. Moreover, the plant injury at 500 g/ha in the assay with soybean (Postemergence, 0 to 100 scale, read-out: Plant response rating, Soybean) stood at 100%; in the assay on wheat (setting [8]), 20%. In addition, the Corn plant response rating (crop injury, 0 = no effect, 100 = complete kill) at 125 g/ha with corn [2] (125 g ai/ha, postemergence, 10 days, visual injury, 0 to 100 scale (0 no effect, 100 complete control)) amounted to 10%; in the assay on corn [4] (setting [5]), 0%. In addition, the Corn plant response rating (crop injury, 0 = no effect, 100 = complete kill) at 500 g/ha in the assay with corn [2] (Postemergence, 0 to 100 scale) is 10%; in the assay with corn [4] (setting [8]) it was 0%.
